Molecules are shown by their SMILES. Like-named read-outs stand apart in the source and are kept apart here.

Data set [1] in a line: Pharmacokinetics test using mice. It counts as in vivo. To be noted: male, Balb/C, mouse, plasma; for Cmax: read-out: C0/Cmax; for Vd: iv, 1 mg/kg. The method, then:
6 to 8 week-old male Balb/C mice weighing 22-29 g were acclimatized for about 1 week, and then 12 mice for each group were divided into an intravenous administration group and an oral administration group and used in the experiment. The mice were fasted before administration of the compound and were allowed to drink water ad libitum. Feed was provided 2 hours after administration of the compound.
A preparation for intravenous injection (0.2 mg/mL) was prepared by dissolving 1.264 mg of the compound of Example 9 in 6.257 mL of DMSO: a mixed solution of solutol and ethanol (1:1): physiological saline (5:5:90% v/v). A preparation for oral administration (1 mg/mL) was prepared by suspending 5.916 mg of the compound of Example 9 in 5.857 mL of 0.5% methyl cellulose (0.5:99.5% v/v) containing 0.1 Tween 80.
The compound of Example 9 was administered at a dose of 1 mg/kg for intravenous administration and at a dose of 10 mg/kg for oral administration using an oral zonde.
In the case of intravenous administration, blood was collected at 5 minutes, 15 minutes, 30 minutes, 1 hour, 2 hours, 4 hours, 8 hours and 24 hours after administration of the compound. In the case of oral administration, blood was collected at 15 minutes, 30 minutes, 1 hour, 2 hours, 4 hours, 8 hours, 10 hours and 24 hours after administration of the compound. Plasma was separated from the collected blood, and the content of compounds in blood was measured by LC-MS/MS method, and PK parameters were calculated using Phoenix software ver.8.1.

Data set [2] deals with human breast cancer cell line MCF-7. Description: Cancer cell growth inhibition test (CellTiter-Glo). It counts as cell-based. Conditions: Homo sapiens, MCF7, 72 h, MCF-7, 72 hours, graded; read-out: Celltiter glo analysis (IC50). In a few lines: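 MCF-7 cells (about 3000/well) pre-incubated 24 hours at 37° C, then exposed 72 hours to serially diluted compound, alone or combined with cisplatin or doxorubicin. Viability read by CellTiter-Glo luminescence as % of DMSO-only wells; values are means of three wells.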

A further data set addresses Chk2 kinase (Homo sapiens (Human), UniProt O96017). The data set can be described thus: Chk2 kinase inhibitory activity (LanthaScreen TR-FRET). It counts as biochemical. Conditions: graded. In outline: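 Recombinant Chk1 or Chk2 was mixed with substrate and compound, and the reaction was started with ATP and run 1 h at room temperature. Phosphorylation was detected with a Tb-labelled anti-CREB pSer133 antibody for 30 min, read as the TR-FRET Em520/Em490 ratio. IC50 was fitted from duplicate-well means.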

For a further data set, the target named is Chk1 kinase (Homo sapiens (Human), UniProt O14757). Description: Chk1 kinase inhibitory activity (LanthaScreen TR-FRET). It counts as biochemical. To be noted: graded. The method, then: The compounds of Examples 1 to 66 were diluted at various concentrations and transferred to a 384-well plate by 5 μl, and 10 μl of a mixed solution (2×) of Chk1 kinase (Thermo, P3040) or Chk2 kinase (Thermo, PV3367) and a substrate (Thermo, PV3508) was added to wells treated with the compounds. 5 μl of an ATP solution at a 4× concentration was added to the test well and reacted at room temperature for 1 hour. 20 μl of LanthaScreen Terbium-CREB p-Ser 133 antibody (Thermo, PV3542) was added to the reaction well and incubated at room temperature for 30 minutes. Conversion data was measured by an EnVision 2014 multi label reader (PerkinElmer). The activity for each concentration was determined by the ratio (FRET ratio=FR) of the value obtained by dividing the value at 520 nm by the value at 490 nm among the emission wavelength values for each wavelength (Em520/Em490). The results obtained for each concentration of the compounds were the average values obtained in two wells, and the IC50 values of the compounds were calculated using PRIZM software for analysis of the results. IC50 in Table 7 was graded as follows.
Sequence of Chk1 kinase (O14757 whole entry): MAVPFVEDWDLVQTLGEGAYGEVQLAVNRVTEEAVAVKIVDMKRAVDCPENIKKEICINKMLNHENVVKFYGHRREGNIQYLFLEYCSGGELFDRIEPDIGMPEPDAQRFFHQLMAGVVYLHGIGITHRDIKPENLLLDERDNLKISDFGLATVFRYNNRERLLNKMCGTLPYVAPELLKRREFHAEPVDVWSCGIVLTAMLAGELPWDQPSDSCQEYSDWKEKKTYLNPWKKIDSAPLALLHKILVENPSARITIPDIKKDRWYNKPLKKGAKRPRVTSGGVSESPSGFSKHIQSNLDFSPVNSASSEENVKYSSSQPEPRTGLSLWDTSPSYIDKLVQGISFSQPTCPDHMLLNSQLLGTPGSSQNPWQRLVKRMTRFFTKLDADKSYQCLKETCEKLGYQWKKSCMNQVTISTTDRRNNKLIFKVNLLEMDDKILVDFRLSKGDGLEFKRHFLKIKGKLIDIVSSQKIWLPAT

Sequence of Chk2 kinase (O96017 whole entry): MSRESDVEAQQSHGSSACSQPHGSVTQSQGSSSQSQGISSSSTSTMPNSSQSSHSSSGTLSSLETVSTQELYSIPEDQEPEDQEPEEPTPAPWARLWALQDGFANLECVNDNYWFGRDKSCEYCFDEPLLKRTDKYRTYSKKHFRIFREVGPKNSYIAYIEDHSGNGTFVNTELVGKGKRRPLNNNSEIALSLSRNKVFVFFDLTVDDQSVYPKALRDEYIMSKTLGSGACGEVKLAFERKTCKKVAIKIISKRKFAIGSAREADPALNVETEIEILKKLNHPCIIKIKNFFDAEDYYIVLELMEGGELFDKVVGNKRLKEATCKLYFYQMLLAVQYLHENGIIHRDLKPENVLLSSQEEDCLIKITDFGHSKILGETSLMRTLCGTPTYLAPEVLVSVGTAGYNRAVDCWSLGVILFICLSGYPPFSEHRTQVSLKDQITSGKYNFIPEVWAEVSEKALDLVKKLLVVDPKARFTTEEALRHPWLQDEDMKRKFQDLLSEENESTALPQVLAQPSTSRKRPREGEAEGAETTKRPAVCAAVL

In the case of `Nc1ncc(-c2cc(-c3cnn(CC(F)(F)F)c3)ccc2F)nc1C(=O)N[C@@H]1CNC[C@@H](F)C1` [Example 9, 3-amino-6-(2-fluoro-5-(1-(2,2,2-trifluoroethyl)-1H-pyrazol-4-yl)phenyl)-N-((3S,5S)-5-fluoropiperidin-3-yl) pyrazine-2-carboxamide], in data set [1] (IV (1 mg/kg)), the AUC(0-inf) amounted to 298 ng·h/mL, the AUC(0-t) worked out at 267 ng·h/mL, the clearance was 56.2 mL/min/kg and the half-life is 1.36 h. Further, the Cmax in data set [1] (IV (1 mg/kg)) is 231 ng/mL. Moreover, the bioavailability in data set [1] (PO 10 mg/kg vs IV 1 mg/kg, read-out: Oral bioavailability (% F)) came to 59%. In data set [1] (PO (10 mg/kg)), the total exposure AUC(0-inf) came to 1770 ng·h/mL, the exposure AUC(0-t) is 1730 ng·h/mL, the time to peak (Tmax) is 0.5 h and the half-life was 1.92 h. In addition, the Cmax in data set [1] (PO (10 mg/kg)) is 749 ng/mL. Besides, in data set [1] (IV (1 mg/kg), read-out: Vd), the Vd worked out at 6.59 L/kg. In addition, the Vd in data set [1] (IV (1 mg/kg), read-out: Vss) stood at 5.22 L/kg. The IC50 in data set [2] lay in the range of 10 to 100 µM. The compound also yielded a concentration for half-maximal inhibition (IC50) against Chk2 kinase of 0.01 to 0.1 µM.

Consider `Cc1ccc(-c2cnn(CC(C)(C)O)c2)cc1-c1cnc(N)c(C(=O)N[C@@H]2CNCC(F)(F)C2)n1` [Example 38, (S)-3-amino-N-(5,5-difluoropiperidin-3-yl)-6-(5-(1-(2-hydroxy-2-methylpropyl)-1H-pyrazol-4-yl)-2-methylphenyl)pyrazine-2-carboxamide], for which the values for the IC50 (on Chk1 kinase; in data set [2]; at Chk2 kinase) were > 1 µM, 10 to 100 µM and > 1 µM, respectively.

`Nc1ncc(-c2nccc(-c3cnn(CC(F)(F)F)c3)n2)nc1C(=O)N[C@H]1CCCNC1` [Example 39, (S)-3-amino-N-(piperidin-3-yl)-6-(4-(1-(2,2,2-trifluoroethy)-1H-pyrazol-4-yl)pyrimidin-2-yl)pyrazine-2-carboxamide]: the values for the 50% inhibitory concentration (IC50) (at Chk1 kinase; in data set [2]; against Chk2 kinase) were 0.1 to 1 µM, 10 to 100 µM and ≤ 0.01 µM, respectively.

For `CC1(C)Cc2c(-c3cccc(-c4cnc(N)c(C(=O)N[C@H]5CCCNC5)n4)c3)cnn2C1` [Example 42, (S)-3-amino-6-(3-(5,5-dimethyl-5,6-dihydro-4H-pyrrolo[1,2-b]pyrazol-3-yl)phenyl)-N-(piperidin-3-yl) pyrazine-2-carboxamide], the IC50 is 0.01 to 0.1 µM on Chk1 kinase, 10 to 100 µM in data set [2] and ≤ 0.01 µM on Chk2 kinase.

On to `CC1(C)Cc2c(-c3ccc(F)c(-c4cnc(N)c(C(=O)N[C@H]5CCCNC5)n4)c3)cnn2C1` [Example 43, (S)-3-amino-6-(5-(5,5-dimethyl-5,6-dihydro-4H-pyrrolo[1,2-b]pyrazol-3-yl)-2-fluorophenyl)-N-(piperidin-3-yl)pyrazine-2-carboxamide], for which the values for the IC50 (against Chk1 kinase; in data set [2]; at Chk2 kinase) were 0.1 to 1 µM, 10 to 100 µM and ≤ 0.01 µM, respectively.

Consider `CC1(C)Cc2c(-c3ccc(F)c(-c4cnc(N)c(C(=O)N[C@@H]5CNC[C@@H](F)C5)n4)c3)cnn2C1` [Example 44, 3-amino-6-(5-(5,5-dimethyl-5,6-dihydro-4H-pyrrolo [1,2-b]pyrazol-3-yl)-2-fluorophenyl)-N-((3S,5S)-5-fluoropiperidin-3-yl)pyrazine-2-carboxamide], for which the values for the half-maximal inhibitory concentration (IC50) (against Chk1 kinase; in data set [2]; against Chk2 kinase) were ≤ 0.01 µM, ≤ 10 µM and 0.01 to 0.1 µM, respectively.

As to `CC1(C)Cc2c(-c3cccc(-c4cnc(N)c(C(=O)N[C@@H]5CNC[C@@H](F)C5)n4)c3)cnn2C1` [Example 45, 3-amino-6-(3-(5,5-dimethyl-5,6-dihydro-4H-pyrrolo[1,2-b]pyrazol-3-yl)phenyl)-N-((3S,5S)-5-fluoropiperidin-3-yl)pyrazine-2-carboxamide], the IC50 is 0.1 to 1 µM on Chk1 kinase, 10 to 100 µM in data set [2] and ≤ 0.01 µM against Chk2 kinase.

As for `CC1(C)Cc2c(-c3ccc(F)c(-c4cnc(N)c(C(=O)N[C@H]5CCC6(CC6)NC5)n4)c3)cnn2C1` [Example 46, (S)-3-amino-6-(5-(5,5-dimethyl-5,6-dihydro-4H-pyrrolo[1,2-b]pyrazol-3-yl)-2-fluorophenyl)-N-(4-azaspiro[2.5]octan-6-yl)pyrazine-2-carboxamide], the half-inhibitory concentration (IC50) is > 1 µM at Chk1 kinase, 10 to 100 µM in data set [2] and 0.01 to 0.1 µM against Chk2 kinase.

In the case of `CC1(C)Cc2c(-c3cccc(-c4cnc(N)c(C(=O)N[C@@H]5CNCC(F)(F)C5)n4)c3)cnn2C1` [Example 59], the concentration for half-maximal inhibition (IC50) against Chk1 kinase was > 1 µM; in data set [2], ≤ 10 µM; on Chk2 kinase it was 0.01 to 0.1 µM.

As to `CC1(C)Cc2c(-c3nccc(-c4cnc(N)c(C(=O)NC5CNC[C@@H](F)C5)n4)n3)cnn2C1` (stereo partly drawn) [Example 64, 3-amino-6-(2-(5,5-dimethyl-5,6-dihydro-4H-pyrrolo[1,2-b]pyrazol-3-yl)pyrimidin-4-yl)-N-((3S,5S)-5-fluoropiperidin-3-y)pyrazine-2-carboxamide], the concentration for half-maximal inhibition (IC50) on Chk1 kinase is > 1 µM; in data set [2], 10 to 100 µM; against Chk2 kinase, ≤ 0.01 µM.
